The values below come from article PMC8300687, “A Fine-Tuned Lipophilicity/Hydrophilicity Ratio Governs Antibacterial Potency and Selectivity of Bifurcated Halogen Bond-Forming NBTIs” (Antibiotics, 2021).

One series deals with T1, S. aureus DNA gyrase (Staphylococcus aureus, UniProt P20831).
T1 construct: purchased Inspiralis (Norwich, UK)
Conditions: cited from earlier work.

For the next series, the system named is S. aureus. More on the design: method as in PMID 31140866. To be noted: Figure 2, previous study ref 18; cited from earlier work.
The test system of a further series is E. coli. On the set-up: method as in PMID 31140866. Conditions: Figure 2, previous study ref 18; cited from earlier work.
A short description of series [1]: Equilibrium solubility at pH 6.8. Conditions: 37 °C, pH 6.8, aqueous buffer, thermodynamic from solid. The procedure: (§1) Prior to the measurements of solubility and permeability isocratic HPLC methods were developed. […] The individual method parameters for each compound are given in the Supplementary Materials Table S1.
The vials were then placed in a homogenizer (Next Advance Bullet Blender, Troy, NY, USA) for 5 min ad speed setting “2” after which they were kept in a thermostated shaker (Tehtnica HeatMix, Domel, Slovenia) at 37 °C and 1200 RPM for 24 h. […] Twenty µL of these solutions were injected for the HPLC analysis by the described methods (Supplementary Materials Table S1). External standards for calibration were made in a mobile phase with 5% acetonitrile in a range of 30–90 mg/L and injected at 20 µL injection volumes.

A further series in a line: in vitro. To be noted: PAMPA. The protocol: as §1
A 96-well precoated three-layer PAMPA plates (Corning® Gentest™ Pre-coated PAMPA Plate System, Corning, NY, USA) were used according to the manufacturer’s instructions and as described previously with 300 µL of the donor solutions in the bottom compartment and 200 µL of the acceptor solution (pH 7.4 PBS) in the upper compartment at 37 °C and a 4-h incubation time. The initial and end donor solutions were injected at a 5 µL injection volume. The initial donor solutions were also diluted 100-fold and injected at a 100 µL injection volume to serve as external references for the end acceptor solutions which were injected at the same injection volume. The permeability calculations were made with a manufacturer-provided Excel spreadsheet directly from the measured peak areas accounting for the relevant dilutions and injection volumes.

In another series the test system is E. coli N43 (CGSC# 5583). The series can be described thus: MIC broth microdilution, E. coli N43. Conditions: Escherichia coli, read-out: MIC E. coli N43 (CGSC# 5583). Type of series: cell-based. The protocol: (§2) Antimicrobial testing was carried out by the broth microdilution method in 96-well plate format following the Clinical and Laboratory Standards Institute (CLSI) guidelines and European Committee on Antimicrobial Susceptibility Testing (EUCAST) recommendations. Bacterial suspension of specific bacterial strain equivalent to 0.5 McFarland turbidity standard was diluted with cation-adjusted Mueller Hinton broth with TES (Thermo Fisher Diagnostic, Landsmeer, The Netherlands), to obtain a final inoculum of 10^5 CFU/mL. Compounds dissolved in DMSO and inoculum were mixed together and incubated for 18–20 h at 35 °C. Suspensions of Mycobacterium sp. were prepared into a tube of Middelbrook 7H9 broth supplemented with 5% OADC (Thermo Scientific, Trek Diagnostic Systems, West Sussex, UK) and incubated for at least 10 days. After incubation the minimal inhibitory concentration (MIC) values were determined by visual inspection as the lowest dilution of compounds showing no turbidity. Tetracycline was used as a positive control on every assay plate.

The next series relates to E. coli (ATCC 25922). Put plainly: MIC broth microdilution, E. coli ATCC 25922. It is filed as cell-based. To be noted: Escherichia coli, ATCC25922; read-out: MIC E. coli (ATCC 25922). The protocol:
as §2

Converted amounts (≈) assume the structure as drawn. Read-outs that look alike come from different tables or passages of the source. Bounds are passed on as bounds.

T1 sequence (P20831 whole entry): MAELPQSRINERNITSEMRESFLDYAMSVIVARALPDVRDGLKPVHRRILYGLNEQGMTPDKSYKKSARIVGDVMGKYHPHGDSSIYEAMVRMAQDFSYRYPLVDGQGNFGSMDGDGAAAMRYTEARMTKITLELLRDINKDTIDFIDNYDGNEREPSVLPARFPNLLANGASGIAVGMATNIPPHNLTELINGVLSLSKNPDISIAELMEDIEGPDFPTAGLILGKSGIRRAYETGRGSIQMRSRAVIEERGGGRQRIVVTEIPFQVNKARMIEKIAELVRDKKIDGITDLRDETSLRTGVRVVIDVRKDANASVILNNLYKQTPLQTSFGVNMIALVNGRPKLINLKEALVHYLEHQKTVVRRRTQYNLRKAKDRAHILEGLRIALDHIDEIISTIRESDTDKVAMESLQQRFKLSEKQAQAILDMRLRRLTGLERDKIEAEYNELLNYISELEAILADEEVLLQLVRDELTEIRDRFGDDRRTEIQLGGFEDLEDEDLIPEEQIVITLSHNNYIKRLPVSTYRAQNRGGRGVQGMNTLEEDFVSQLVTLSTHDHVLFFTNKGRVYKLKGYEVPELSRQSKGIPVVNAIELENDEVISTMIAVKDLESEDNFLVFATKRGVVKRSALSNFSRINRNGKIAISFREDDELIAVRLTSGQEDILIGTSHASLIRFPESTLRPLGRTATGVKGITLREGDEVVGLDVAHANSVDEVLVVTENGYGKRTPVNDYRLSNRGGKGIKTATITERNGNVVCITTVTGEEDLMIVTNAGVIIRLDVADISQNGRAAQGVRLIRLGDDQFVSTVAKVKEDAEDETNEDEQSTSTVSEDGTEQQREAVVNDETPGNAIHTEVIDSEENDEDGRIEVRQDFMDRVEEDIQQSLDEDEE
T1 sequence (P0A0K8 whole entry partner): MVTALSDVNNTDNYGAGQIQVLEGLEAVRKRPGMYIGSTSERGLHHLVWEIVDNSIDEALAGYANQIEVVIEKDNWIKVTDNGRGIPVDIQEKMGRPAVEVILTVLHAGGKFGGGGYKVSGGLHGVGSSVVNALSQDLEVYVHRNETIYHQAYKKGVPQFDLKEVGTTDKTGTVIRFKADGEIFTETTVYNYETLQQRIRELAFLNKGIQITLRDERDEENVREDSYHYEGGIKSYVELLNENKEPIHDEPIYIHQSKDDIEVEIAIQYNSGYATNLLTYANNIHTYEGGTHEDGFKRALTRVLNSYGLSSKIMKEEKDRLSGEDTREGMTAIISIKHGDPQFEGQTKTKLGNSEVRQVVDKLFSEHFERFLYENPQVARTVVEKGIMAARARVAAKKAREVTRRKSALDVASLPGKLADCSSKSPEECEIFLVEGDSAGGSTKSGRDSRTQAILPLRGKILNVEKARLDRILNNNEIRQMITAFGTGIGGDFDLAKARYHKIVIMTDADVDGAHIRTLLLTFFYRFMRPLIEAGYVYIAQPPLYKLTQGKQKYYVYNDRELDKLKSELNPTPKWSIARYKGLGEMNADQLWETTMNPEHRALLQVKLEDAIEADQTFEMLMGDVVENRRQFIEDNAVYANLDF

Regarding `COc1ccc2ncc(F)c(C[C@H](O)[C@@H]3CC[C@@H](NCc4cc5c(nn4)OCCS5)CO3)c2n1` [ACT3870424], on S. aureus DNA gyrase (Table S2, supplement ref 4), the IC50 is 125 nM.

Turning to `COc1ccc2nccc(NC(=O)C3CCC(NCc4cnn(-c5ccccc5)c4)CC3)c2c1` (stereo not shown) [Compound 131], the “MIC S. aureus” value in the series on S. aureus is 2 µg/mL (≈ 4.39 µM). The concentration for half-maximal inhibition (IC50) at S. aureus DNA gyrase (Table S2, supplement ref 1) is 830 nM. In addition, the “MIC E. coli” value in the series with E. coli is 64 µg/mL (≈ 140 µM).

The compound `C[C@H]1O[C@@H](O[C@H]2[C@@H](O)C[C@H](O[C@H]3[C@@H](O)C[C@H](O[C@H]4CC[C@@]5(C)[C@H](CC[C@@H]6[C@@H]5C[C@@H](O)[C@]5(C)[C@@H](C7=CC(=O)OC7)CC[C@]65O)C4)O[C@@H]3C)O[C@@H]2C)C[C@H](O)[C@@H]1O` [Di goxin, digoxin, reference compound] gave a solubility (thermodynamic) at 24 h in series [1] of 52 µg/mL (≈ 66.6 µM). Also, the “PAMPA permeability classification [low/high]” value in “in vitro” was “int erm ediat e”. In addition, the Papp in the series “in vitro” (pH 7.4) is 0.58 ×10⁻⁶ cm/s.

On to `O=c1ccc2ncc(=O)n3c2n1C[C@H]3CN1CCC(NCc2cc3c(cn2)OCCC3)CC1` [Gepotidacin, reference compound], for which the minimum inhibitory concentration (MIC) in the series on E. coli N43 (CGSC# 5583) came out at 0.016 µg/mL (≈ 0.0357 µM); in the series on E. coli (ATCC 25922), 1 µg/mL (≈ 2.23 µM).

Turning to `COCCc1ccc(OCC(O)CNC(C)C)cc1` (stereo not shown) [Metoprolol, metoprolol, reference compound], in series [1], the solubility (thermodynamic) at 24 h was determined as 30400 µg/mL (≈ 114000 µM). Moreover, the Papp at 4 h in “in vitro” is > 2.7 ×10⁻⁶ cm/s; in “in vitro” (pH 7.4) it was 4.2 ×10⁻⁶ cm/s.

For the compound `Cn1c(=O)c2[nH]cnc2n(C)c1=O` [Theophylli n, theophylline, reference compound], the solubility (thermodynamic) at 24 h in series [1] was found to be 8220 µg/mL (≈ 45600 µM).
